ChEMBL document CHEMBL3872242, “Anti-inflammatory tetraquinane diterpenoids from a Crinipellis species” (Bioorg Med Chem, 2017)
Values belong to the compound of their own block, whether it stands above or below them. Calls of active or inactive are those of the source. The calls are words filed in the database; no cut-off is given here.

How the values were obtained:
[1] = test system: MONO-MAC-6; test: Inhibition of LPS/INF-gamma induced CXCL10 promoter dependent transcription activity in human MONO-MAC-6 cells measured after 4 hrs by luciferase reporter gene assay; format: functional
[2] = Effect on constitutive activity of EF-1alpha expressed in human MONO-MAC-6 cells up to 50 uM measured after 4 hrs by luciferase reporter gene assay; format: ADME, cell-based; settings: mono-mac-6, 4 h
[3] = Cytotoxicity against human MONO-MAC-6 cells up to 50 uM measured after 24 hrs by XTT assay; format: toxicity, cell-based; settings: mono-mac-6, 24 h
[4] = Inhibition of NF-kappaB (unknown origin) expressed in LPS/INF-gamma-stimulated human MONO-MAC-6 cells measured after 4 hrs by luciferase reporter gene assay; format: cell-based; settings: MONO-MAC-6, 4 h
[5] = Inhibition of IRF (unknown origin) expressed in LPS/INF-gamma-stimulated human MONO-MAC-6 cells assessed as reduction in ISRE dependent transcription activity measured after 4 hrs by luciferase reporter gene assay; format: cell-based; settings: MONO-MAC-6, 4 h
[6] = test system: MONO-MAC-6; test: Inhibition of human THP1 cells derived IL-8 promoter dependent transcription activity expressed in LPS/INF-gamma stimulated human MONO-MAC-6 cells measured after 4 hrs by luciferase reporter gene assay; format: functional, cell-based; settings: MONO-MAC-6, 4 h
[7] = Down regulation of TNF-alpha mRNA expression in LPS/INF-gamma stimulated human MONO-MAC-6 cells at 30 uM preincubated for 1 hr followed by LPS/INF-gamma stimulation measured after 4 hrs by quantitative RT-PCR analysis; format: functional, cell-based
[8] = Down regulation of IL-6 mRNA expression in LPS/INF-gamma stimulated human MONO-MAC-6 cells at 30 uM preincubated for 1 hr followed by LPS/INF-gamma stimulation measured after 4 hrs by quantitative RT-PCR analysis; format: functional, cell-based
[9] = Down regulation of […] mRNA expression in LPS/INF-gamma stimulated human MONO-MAC-6 cells at 30 uM preincubated for 1 hr followed by LPS/INF-gamma stimulation measured after 4 hrs by quantitative RT-PCR analysis; format: functional, cell-based
[10] = Down regulation of COX-2 mRNA expression in LPS/INF-gamma stimulated human MONO-MAC-6 cells at 30 uM preincubated for 1 hr followed by LPS/INF-gamma stimulation measured after 4 hrs by quantitative RT-PCR analysis; format: functional, cell-based
[11] = Down regulation of CCL2 mRNA expression in LPS/INF-gamma stimulated human MONO-MAC-6 cells at 30 uM preincubated for 1 hr followed by LPS/INF-gamma stimulation measured after 4 hrs by quantitative RT-PCR analysis; format: functional, cell-based
[12] = Down regulation of IL-8 mRNA expression in LPS/INF-gamma stimulated human MONO-MAC-6 cells at 30 uM preincubated for 1 hr followed by LPS/INF-gamma stimulation measured after 4 hrs by quantitative RT-PCR analysis; format: functional, cell-based
[13] = test system: MONO-MAC-6; test: Inhibition of IL-6 mRNA expression in LPS/INF-gamma stimulated human MONO-MAC-6 cells at 30 uM preincubated for 1 hr followed by LPS/INF-gamma stimulation measured after 16 hrs; format: functional, cell-based
[14] = test system: MONO-MAC-6; test: Inhibition of TNF-alpha mRNA expression in LPS/INF-gamma stimulated human MONO-MAC-6 cells at 30 uM preincubated for 1 hr followed by LPS/INF-gamma stimulation measured after 16 hrs; format: functional, cell-based
[15] = test system: MONO-MAC-6; test: Inhibition of IL-23 mRNA expression in LPS/INF-gamma stimulated human MONO-MAC-6 cells at 30 uM preincubated for 1 hr followed by LPS/INF-gamma stimulation measured after 16 hrs; format: functional, cell-based
[16] = test system: MONO-MAC-6; test: Inhibition of CXCL1 mRNA expression in LPS/INF-gamma stimulated human MONO-MAC-6 cells at 30 uM preincubated for 1 hr followed by LPS/INF-gamma stimulation measured after 16 hrs; format: functional, cell-based
[17] = test system: MONO-MAC-6; test: Inhibition of CXCL10 mRNA expression in LPS/INF-gamma stimulated human MONO-MAC-6 cells at 30 uM preincubated for 1 hr followed by LPS/INF-gamma stimulation measured after 16 hrs; format: functional, cell-based
[18] = test system: MONO-MAC-6; test: Inhibition of CXCL11 mRNA expression in LPS/INF-gamma stimulated human MONO-MAC-6 cells at 30 uM preincubated for 1 hr followed by LPS/INF-gamma stimulation measured after 16 hrs; format: functional, cell-based
[19] = test system: MONO-MAC-6; test: Inhibition of IL-8 mRNA expression in LPS/INF-gamma stimulated human MONO-MAC-6 cells at 30 uM preincubated for 1 hr followed by LPS/INF-gamma stimulation measured after 16 hrs; format: functional, cell-based
[20] = test system: MONO-MAC-6; test: Inhibition of CCL1 mRNA expression in LPS/INF-gamma stimulated human MONO-MAC-6 cells at 30 uM preincubated for 1 hr followed by LPS/INF-gamma stimulation measured after 16 hrs; format: functional, cell-based
[21] = test system: MONO-MAC-6; test: Inhibition of CCL3 mRNA expression in LPS/INF-gamma stimulated human MONO-MAC-6 cells at 30 uM preincubated for 1 hr followed by LPS/INF-gamma stimulation measured after 16 hrs; format: functional, cell-based
[22] = Effect on GAPDH mRNA expression in human MONO-MAC-6 cells at 30 to 60 uM preincubated for 1 hr followed by LPS/INF-gamma stimulation measured after 4 hrs by quantitative RT-PCR analysis; format: ADME, cell-based; settings: mono-mac-6, 4 h

IC50 [4]: 20 to 25 µM
IC50 [5]: 40 to 45 µM
IC50 [6]: 7 to 7.5 µM
Compound: CC(C)[C@H]1CC[C@]23C[C@@H]4[C@H](C)C(=O)[C@H]5O[C@]54[C@@]2(C)[C@@H](O)C(=O)[C@]13C
inhibition [1]: Dose-dependent effect
Activity [2]: Non-Toxic
Activity [3]: Non-Toxic
Activity [7]: Active
Activity [8]: Active
Activity [9]: Active
Activity [10]: Active
Activity [11]: Active
Activity [12]: Active
inhibition [13]: Active
inhibition [14]: Active
inhibition [15]: Active
inhibition [16]: Active
inhibition [17]: Active
inhibition [18]: Active
inhibition [19]: Active
inhibition [20]: Active
inhibition [21]: Active
Activity [22]: Non-Toxic

IC50 [4]: > 50 µM
IC50 [5]: > 50 µM
IC50 [6]: > 50 µM
Compound: C=C[C@H]1CC[C@]23C[C@@H]4[C@H](C)[C@@H](O)[C@H]5O[C@@]45[C@@]2(C)CC(=O)[C@]13C
Activity [2]: Non-Toxic
Activity [3]: Non-Toxic
